{
  "source": "patent US10640534B2",
  "about": "(Agios Pharmaceuticals, Inc., priority 2012, dated 2020)",
  "data": [
    {"system": "U87MG cells", "assay": "Cellular assay, inhibition of 2-HG production in U87MG cells", "assay_type": "cell-based", "conditions": "Homo sapiens, U-87 MG, 48 h", "method": "Cells (HT1080 or U87MG) are grown in T125 flasks in DMEM containing 10% FBS, 1× penicillin/streptomycin and 500 ug/mL G418 (present in U87MG cells only). They are harvested by trypsin and seeded into 96 well white bottom plates at a density of 5000 cell/well in 100 ul/well in DMEM with 10% FBS. […] Cells are incubated overnight at 37° C. in 5% CO2. The next day test compounds are made up at 2× the final concentration and 100 ul are added to each cell well. The final concentration of DMSO is 0.2% and the DMSO control wells are plated in row G. The plates are then placed in the incubator for 48 hours. […] The cell plate is placed back in the incubator for another 24 hours. At 72 hours post compound addition, 10 mL/plate of Promega Cell Titer Glo reagent is thawed and mixed. The cell plate is removed from the incubator and allowed to equilibrate to room temperature. Then 100 ul of Promega Cell Titer Glo reagent is added to each well of media. The cell plate is then placed on an orbital shaker for 10 minutes and then allowed to sit at room temperature for 20 minutes. The plate is then read for luminescence with an integration time of 500 ms.", "units": {"IC50": "nM"}, "values": [
      {"smiles": "Cn1ccc2cc(N(C(=O)[C@@H]3CCC(=O)N3c3cc(C#N)ccn3)[C@H](C(=O)NC3CC(F)(F)C3)c3ccccc3Cl)ccc21", "note": "[Compound 209, (S)—N—((S)-1-(2-Chlorophenyl)-2-((3,3-difluorocyclobutyl)amino)-2-oxoethyl)-1-(4-cyanopyridin-2-yl)-N-(1-methyl-1H-indol-5-yl)-5-oxopyrrolidine-2-carboxamide]", "IC50": "< 100"},
      {"smiles": "N#Cc1ccnc(N2C(=O)CC[C@H]2C(=O)N(c2cc(F)cc(F)c2)[C@H](C(=O)NC2CCC(F)(F)CC2)c2ccccc2Cl)n1", "note": "[Compound 87, (S)—N—((S)-1-(2-Chlorophenyl)-2-((4,4-difluorocyclohexyl)amino)-2-oxoethyl)-1-(4-cyanopyrimidin-2-yl)-N-(3,5-difluorophenyl)-5-oxopyrrolidine-2-carboxamide]", "IC50": "< 100"},
      {"smiles": "N#Cc1ccnc(N2C(=O)CC[C@H]2C(=O)N(c2cccc(C3CC3)c2)[C@H](C(=O)NC2CC(F)(F)C2)c2ccccc2Cl)c1", "note": "[Compound 173, (S)—N—((S)-1-(2-Chlorophenyl)-2-((3,3-difluorocyclobutyl)amino)-2-oxoethyl)-1-(4-cyanopyridin-2-yl)-N-(3-cyclopropylphenyl)-5-oxopyrrolidine-2-carboxamide]", "IC50": "< 100"},
      {"smiles": "N#Cc1ccnc(N2C(=O)CC[C@H]2C(=O)N(c2cc(F)cc(F)c2)C(C(=O)NC2CC(F)(F)C2)c2cccc(Cl)c2Cl)c1", "note": "(stereo partly drawn) [Compound 195, (2S)-1-(4-Cyanopyridin-2-yl)-N-(1-(2,3-dichlorophenyl)-2-(3,3-difluoro-cyclobutylamino)-2-oxoethyl)-N-(3,5-difluorophenyl)-5-oxopyrrolidine-2-carboxamide]", "IC50": "< 100"},
      {"smiles": "N#Cc1ccnc(N2C(=O)[C@H](O)C[C@H]2C(=O)N(c2cccc(F)c2)[C@H](C(=O)NC2CC(F)(F)C2)c2ccccc2Cl)c1", "note": "[Compound 113, (2S,4R)—N—((S)-1-(2-Chlorophenyl)-2-(3,3-difluorocyclobutylamino)-2-oxoethyl)-1-(4-cyanopyridin-2-yl)-N-(3-fluorophenyl)-4-hydroxy-5-oxopyrrolidine-2-carboxamide]", "IC50": "< 100"},
      {"smiles": "N#Cc1ccnc(N2C(=O)[C@H](O)C[C@H]2C(=O)N(c2cc(F)cc(F)c2)[C@@H](C(=O)NC2CC(F)(F)C2)c2ccccc2Cl)n1", "note": "[Compound 116, (2S,4R)—N—((R)-1-(2-Chlorophenyl)-2-((3,3-difluorocyclobutyl)amino)-2-oxoethyl)-1-(4-cyanopyrimidin-2-yl)-N-(3,5-difluorophenyl)-4-hydroxy-5-oxopyrrolidine-2-carboxamide]", "IC50": "100 to 500"},
      {"smiles": "CS(=O)(=O)c1cccc(N(C(=O)[C@@H]2CCC(=O)N2c2cc(C#N)ccn2)C(C(=O)NC2CC(F)(F)C2)c2ccccc2Cl)c1", "note": "(stereo partly drawn) [Compound 96, (2S)—N-(1-(2-Chlorophenyl)-2-((3,3-difluorocyclobutyl)amino)-2-oxoethyl)-1-(4-cyanopyridin-2-yl)-N-(3-(methylsulfonyl)phenyl)-5-oxopyrrolidine-2-carboxamide]", "IC50": "< 100"},
      {"smiles": "N#Cc1ccnc(N2C(=O)[C@H](O)C[C@H]2C(=O)N(c2cc(F)cc(F)c2)[C@H](C(=O)NC2CC(F)(F)C2)c2ccccc2Cl)n1", "note": "[Compound 117, (2S,4R)—N—((S)-1-(2-Chlorophenyl)-2-((3,3-difluorocyclobutyl)amino)-2-oxoethyl)-1-(4-cyanopyrimidin-2-yl)-N-(3,5-difluorophenyl)-4-hydroxy-5-oxopyrrolidine-2-carboxamide]", "IC50": "< 100"},
      {"smiles": "N#Cc1ccnc(N2C(=O)CC[C@H]2C(=O)N(c2cccc(S(N)(=O)=O)c2)[C@H](C(=O)NC2CC(F)(F)C2)c2ccccc2Cl)c1", "note": "[Compound 84, (S)—N—((S)-1-(2-Chlorophenyl)-2-(3,3-difluorocyclobutylamino)-2-oxoethyl)-1-(4-cyanopyridin-2-yl)-5-oxo-N-(3-sulfamoylphenyl)pyrrolidine-2-carboxamide]", "IC50": "100 to 500"},
      {"smiles": "N#Cc1ccnc(N2C(=O)[C@@H](O)C[C@H]2C(=O)N(c2cc(F)cc(F)c2)[C@H](C(=O)NC2CC(F)(F)C2)c2ccccc2Cl)c1", "note": "[Compound 171, (2S,4S)—N—((S)-1-(2-Chlorophenyl)-2-((3,3-difluorocyclobutyl)amino)-2-oxoethyl)-1-(4-cyano-pyridin-2-yl)-N-(3,5-difluorophenyl)-4-hydroxy-5-oxopyrrolidine-2-carboxamide]", "IC50": "< 100"},
      {"smiles": "N#Cc1ccnc(N2C(=O)CC[C@H]2C(=O)N(c2cc(F)cc(F)c2)[C@H](C(=O)NC2CC(F)(F)C2)c2ccc(Cl)cc2Cl)c1", "note": "[Compound 196, (S)-1-(4-Cyanopyridin-2-yl)-N—((S)-1-(2,4-dichlorophenyl)-2-((3,3-difluorocyclobutyl)-amino)-2-oxoethyl)-N-(3,5-difluorophenyl)-5-oxopyrrolidine-2-carboxamide]", "IC50": "< 100"},
      {"smiles": "N#Cc1cc(F)cc(N(C(=O)[C@@H]2CCC(=O)N2c2cc(C#N)ccn2)[C@H](C(=O)NC2CC(F)(F)C2)c2ccccc2Cl)c1", "note": "[Compound 177, (S)—N—((S)-1-(2-Chlorophenyl)-2-(3,3-difluorocyclobutylamino)-2-oxoethyl)-N-(3-cyano-5-fluorophenyl)-1-(4-cyanopyridin-2-yl)-5-oxopyrrolidine-2-carboxamide]", "IC50": "< 100"},
      {"smiles": "N#Cc1ccnc(N2C(=O)[C@H](O)C[C@H]2C(=O)N(c2cccc(F)c2)[C@H](C(=O)NC2CCC(F)(F)CC2)c2ccccc2Cl)n1", "note": "[Compound 123, (2S,4R)—N—((S)-1-(2-Chlorophenyl)-2-((4,4-difluorocyclohexyl)amino)-2-oxoethyl)-1-(4-cyanopyrimidin-2-yl)-N-(3-fluorophenyl)-4-hydroxy-5-oxopyrrolidine-2-carboxamide]", "IC50": "< 100"},
      {"smiles": "N#Cc1cc(F)cc(N(C(=O)[C@@H]2CCC(=O)N2c2nccc(C#N)n2)[C@H](C(=O)NC2CCC(F)(F)CC2)c2ccccc2Cl)c1", "note": "[Compound 185, (S)—N—((S)-1-(2-Chlorophenyl)-2-((4,4-difluorocyclohexyl)amino)-2-oxoethyl)-N-(3-cyano-5-fluorophenyl)-1-(4-cyanopyrimidin-2-yl)-5-oxopyrrolidine-2-carboxamide]", "IC50": "< 100"},
      {"smiles": "CN1CC(=O)N(c2cc(C#N)ccn2)[C@H](C(=O)N(c2cc(F)cc(F)c2)[C@H](C(=O)NC2CC(F)(F)C2)c2ccccc2Cl)C1", "note": "[Compound 101, (S)—N—((S)-1-(2-chlorophenyl)-2-((3,3-difluorocyclobutyl)amino)-2-oxoethyl)-1-(4-cyanopyridin-2-yl)-N-(3,5-difluorophenyl)-4-methyl-6-oxopiperazine-2-carboxamide]", "IC50": "< 100"},
      {"smiles": "N#Cc1ccnc(N2C(=O)CC[C@H]2C(=O)N(c2cc(F)cc(F)c2)[C@H](C(=O)NC2CC(F)(F)C2)c2c(Cl)cccc2Cl)c1", "note": "[Compound 199, (S)-1-(4-Cyanopyridin-2-yl)-N—((S)-1-(2,6-dichlorophenyl)-2-((3,3-difluorocyclobutyl)amino)-2-oxoethyl)-N-(3,5-difluorophenyl)-5-oxopyrrolidine-2-carboxamide]", "IC50": "< 100"},
      {"smiles": "N#Cc1ccnc(N2C(=O)CC[C@H]2C(=O)N(c2cccc(OC(F)F)c2)[C@H](C(=O)NC2CC(F)(F)C2)c2ccccc2Cl)c1", "note": "(single isomer, unassigned) [Compound 181]", "IC50": "< 100"},
      {"smiles": "N#Cc1ccnc(N2C(=O)CC[C@H]2C(=O)N(c2cc(F)cc(F)c2)[C@H](C(=O)NC2CC(F)(F)C2)c2ccccc2Cl)c1", "note": "[Compound 71, (S)—N—((S)-1-(2-Chlorophenyl)-2-((3,3-difluorocyclobutyl)amino)-2-oxoethyl)-1-(4-cyanopyridin-2-yl)-N-(3,5-difluorophenyl)-5-oxopyrrolidine-2-carboxamide]", "IC50": "< 100"},
      {"smiles": "CS(=O)(=O)c1cccc(N(C(=O)[C@@H]2CCC(=O)N2c2cc(C#N)ccn2)C(C(=O)NC2CCC(F)(F)CC2)c2ccccc2Cl)c1", "note": "(stereo partly drawn) [Compound 95, (2S)—N-(1-(2-Chlorophenyl)-2-((4,4-difluorocyclohexyl)amino)-2-oxoethyl)-1-(4-cyanopyridin-2-yl)-N-(3-(methylsulfonyl)phenyl)-5-oxopyrrolidine-2-carboxamide]", "IC50": "< 100"},
      {"smiles": "O=C(NC1CCC(F)(F)CC1)[C@H](c1ccccc1Cl)N(C(=O)[C@@H]1CCC(=O)N1c1cnccn1)c1cccc(F)c1", "note": "[Compound 58, (S)—N—((S)-1-(2-Chlorophenyl)-2-(4,4-difluorocyclohexylamino)-2-oxoethyl)-N-(3-fluorophenyl)-5-oxo-1-(pyrazin-2-yl)pyrrolidine-2-carboxamide]", "IC50": "< 100"},
      {"smiles": "N#Cc1ccnc(N2C(=O)CC[C@H]2C(=O)N(c2cccc(OC(F)F)c2)[C@H](C(=O)NC2CC(F)(F)C2)c2ccccc2Cl)n1", "note": "[Compound 194, (S)—N—((S)-1-(2-Chlorophenyl)-2-((3,3-difluorocyclobutyl)amino)-2-oxoethyl)-1-(4-cyanopyrimidin-2-yl)-N-(3-(difluoromethoxy)phenyl)-5-oxopyrrolidine-2-carboxamide]", "IC50": "< 100"},
      {"smiles": "N#Cc1ccnc(N2C(=O)OCC[C@H]2C(=O)N(c2cc(F)cc(F)c2)[C@H](C(=O)NC2CC(F)(F)C2)c2ccccc2Cl)n1", "note": "[Compound 154, (S)—N—((S)-1-(2-Chlorophenyl)-2-((3,3-difluorocyclobutyl)amino)-2-oxoethyl)-3-(4-cyanopyrimidin-2-yl)-N-(3,5-difluorophenyl)-2-oxo-1,3-oxazinane-4-carboxamide]", "IC50": "< 100"},
      {"smiles": "N#Cc1ccnc(N2C(=O)OCC[C@H]2C(=O)N(c2cncc(F)c2)[C@H](C(=O)NC2CCC(F)(F)CC2)c2ccccc2Cl)c1", "note": "[Compound 137, (S)—N—((S)-1-(2-Chlorophenyl)-2-((4,4-difluorocyclohexyl)amino)-2-oxoethyl)-3-(4-cyano-pyridin-2-yl)-N-(5-fluoropyridin-3-yl)-2-oxo-1,3-oxazinane-4-carboxamide]", "IC50": "< 100"}
    ]}
  ]
}
